In patent US7132417B2, “2-phenyl-1-[4-(2-aminoethoxy)-benzyl]-indoles as estrogenic agents” (Wyeth, priority 1996, dated 2006):

Legend:
Ishikawa cells = assay: Ishikawa cell alkaline phosphatase assay; assay type: cell-based, human; conditions: for EC50: reference standards, read-out: ED50 values (95% C.I.), estrogenic activity by the alkaline phosphatase method; for % Activation: compound alone, percent of response related to 1 nM 17β-estradiol; for % Activation with 1 nM 17β-estradiol: compound + 1 nM 17β-estradiol (antiestrogen test)
Protocol: Cells were treated for 48 h prior to assay. […] Sample population for at each dose was n=8. […] Plates are placed at -80° C. for a minimum of 15 minutes. Plates are thawed at 37° C. followed by the addition of 150 μL of 0.1 M Tris-HCl, pH 9.8, containing 4 mM para-nitrophenylphosphate (pNPP) to each well (final concentration, 3 mM pNPP). Absorbance and slope calculations were made using the […] Application program (Bio-Tek Instruments, Inc., Winooski, Vt.). […] The four listed in the following were used as reference standards: A description of these methods is described by Holinka, […]., Kuramoto, H. and Gurpide, E. (1986) Effects of steroid hormones and antisteroids on alkaline phosphatase activity in human endometrial cancer cells (Ishikawa Line). Cancer Research, 46:2771-2774, and by […]. and […] simple and sensitive microtiter plate estrogen bioassay based on stimulation alkaline phosphatase in Ishikawa cells; […] Endocrinology, 6:2757-2762.

[1] = test system: Female Sprague Dawley CD rats, ovx; assay: 6-week ovariectomized rat model; assay type: in vivo; conditions: 2 μg/rat, s.c., following 6 weeks of treatment, mean ± SEM
Description: Method No. 20 6-Week Ovariectomized Rat Model
Female Sprague Dawley CD rats, ovx or sham ovx, were obtained 1 day after surgery from Taconic Farm (weight range 240–275 g). They were housed 3 or 4 rats/cage in a room on a 14/10 (light/dark) schedule and provided with food (Purina 500 rat chow) and water ad libitum. Treatment for all studies began 1 day after the animals arrival and dosed 5 or 7 days per week as indicated for 6 weeks. A group of age matched sham operated rats not receiving any treatment served as an intact, estrogen replete control group for each study. All treatments were prepared in 1% tween 80 in normal saline at defined concentrations so that the treatment volume was 0.1 mL/100 g body weight. 17-beta estradiol was dissolved in corn oil (20 uG/mL) and delivered subcutaneously, 0.1 mL/rat. All dosages were adjusted at three week intervals according to group mean body weight measurements.
Five weeks after the initiation of treatment and one week prior to the termination of the study, each rat was evaluated for bone mineral density (BMD). The BMD's of the proximal tibiae (PT) and fourth lumbar vertabrae (L4) were measured in anesthetized rats using a dual energy X-ray absorptiometer (Eclipse XR-26, Norland Corp. Ft. Atkins, Wis.). […] Total cholesterol is determined using a Boehringer-Mannheim Hitachi 911 clinical analyzer using the Cholesterol/HP kit. […]

[2] = test system: Immature Sprague-Dawley rats; assay: Rat uterotrophic/antiuterotrophic bioassay; assay type: in vivo; conditions: daily ip; for Uterine wt mg 100 uG cmpd + 1 uG 17β-estradiol: 100 uG compound + 1 uG 17β-estradiol; for Uterine wt mg 100 uG cmpd: 100 uG compound, immature female rats, uterine wet weight
Protocol: Method No. 19 Rat Uterotrophic/Antiuterotrophic Bioassay
The estrogenic and antiestrogenic properties of the compounds were determined in an immature rat uterotrophic assay (4 day) that (as described previously by L. J. Black and R. L. Goode, Life Sciences, 26, 1453(1980)). Immature Sprague-Dawley rats (female, 18 days old) were tested in groups of six. […] On day 4 the animals were sacrificed by CO2 asphyxiation and their uteri were removed and stripped of excess lipid, any fluid removed and the wet weight determined. A small section of one horn was submitted for histology and the remainder used to isolate total RNA in order to evaluate complement component 3 gene expression.

estrogen receptor [3] = target: T1, estrogen receptor (Homo sapiens, UniProt P03372); assay: 2X VIT ERE infection (luciferase) assay; assay type: cell-based; parameters: expressed in transfected cells; host or cells: Chinese Hamster Ovary cells (CHO), stably transfected; conditions: for Infection Luciferase Activity 1 uM + 17β estradiol: 1 uM compound + 1 nM 17β-estradiol (test for estrogen antagonism); for Infection Luciferase Activity 1 uM: 1 uM compound, percentage of activity as compared to 17β-estradiol
T1 sequence (P03372 1-595): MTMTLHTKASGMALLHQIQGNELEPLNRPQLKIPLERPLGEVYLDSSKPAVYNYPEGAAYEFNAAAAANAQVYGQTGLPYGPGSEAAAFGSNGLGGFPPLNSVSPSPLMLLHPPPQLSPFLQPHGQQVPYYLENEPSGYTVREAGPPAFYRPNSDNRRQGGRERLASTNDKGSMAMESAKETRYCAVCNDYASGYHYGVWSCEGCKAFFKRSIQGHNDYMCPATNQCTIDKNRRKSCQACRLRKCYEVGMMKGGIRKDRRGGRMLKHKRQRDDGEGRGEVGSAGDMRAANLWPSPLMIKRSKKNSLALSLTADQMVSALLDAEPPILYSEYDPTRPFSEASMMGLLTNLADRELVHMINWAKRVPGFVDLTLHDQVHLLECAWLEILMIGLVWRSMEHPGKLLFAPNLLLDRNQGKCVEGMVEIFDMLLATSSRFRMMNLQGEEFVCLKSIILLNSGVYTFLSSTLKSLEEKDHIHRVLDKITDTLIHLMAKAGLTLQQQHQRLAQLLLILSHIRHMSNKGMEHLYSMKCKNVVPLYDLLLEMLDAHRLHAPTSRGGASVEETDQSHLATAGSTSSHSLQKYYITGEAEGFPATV
Protocol: Method No. 18 2X VIT ERE Infection Assay Cell Maintenance and Treatment
Chinese Hamster Ovary cells (CHO) which had been stably transfected with the human estrogen receptor were maintained in DMEM+10% fetal bovine serum (FBS). 48 h prior to treatment the growth medium was replaced with DMEM lacking phenol red +10% dextran coated charcoal stripped FBS (treatment medium). Cells were plated at a density of 5000 cells/well in 96-well plates containing 200 µL of medium/well.
Reporter DNA (Promega plasmid pGL2 containing two tandem copies of the vitellogenin ERE in front of the minimal thymidine kinase promoter driving the luciferase gene) was combined with the B-galactosidase expression plasmid pCH110 (Pharmacia) and carrier DNA (pTZ18U) in the following ratio:
20 uL of this mixture was added to each well of cells and remained on the cells for 16 h. […] Each treatment condition was performed on 8 wells (n=8) which were incubated for 24 h prior to the luciferase assay.
After removing the PBS, 25 uL of Promega lysis buffer was added to each well and allowed to stand at room temperature for 15 min, followed by 15 min at −80° C. and 15 min at 37° C. 20 uL of lysate was transferred to an opaque 96 well plate for luciferase activity evaluation and the remaining lysate (5 uL) was used for the B-galactosidase activity evaluation (normalize transfection). The luciferan substrate (Promega) was added in 100 uL aliquots to each well automatically by the luminometer and the light produced (relative light units) was read 10 seconds after addition.
To the remaining 5 uL of lysate 45 uL of PBS was added. Then 50 uL of Promega B-galactosidase 2× assay buffer was added, mixed well and incubated at 37° C. for 1 hour. A plate containing a standard curve (0.1 to 1.5 milliunits in triplicate) was set up for each experimental run. The plates were analyzed on a Molecular Devices spectrophotometric plate reader at 410 nm. The optical densities for the unknown were converted to milliunits of activity by mathematical extrapolation from the standard curve.
The luciferase data was generated as relative light units (RLUs) accumulated during a 10 second measurement and automatically transferred to a JMP (SAS Inc) file where background RLUs were subtracted. The B-galactosidase values were automatically imported into the file and these values were divided into the RLUs to normalize the data. The mean and standard deviations were determined from a n=8 for each treatment. […] These techniques are described by Tzukerman, M. T., Esty, A., Santiso-Mere, D., Danielian, P., Parker, M. G., Stein, R. B., Pike, J. W. and McDonnel, D. P. (1994).

estrogen receptor [4] = target: T1, estrogen receptor; assay: In vitro estrogen receptor binding assay ([3H]-17β-estradiol competition); parameters: expressed in transfected cells; host or cells: CHO cells (100,000 g cytosol); conditions: read-out: Receptor Binding IC50's
Protocol: In Vitro Estrogen Receptor Binding Assay
CHO cells overexpressing the estrogen receptor were grown in 150 mm^2 dishes in DMEM+10% dextran coated charcoal, stripped fetal bovine serum. The plates were washed twice with PBS and once with 10 mM Tris-HCl, pH 7.4, 1 mM EDTA. Cells were harvested by scraping the surface and then the cell suspension was placed on ice. Cells were disrupted with a hand-held motorized tissue grinder using two, 10-second bursts. […] The cytosol was then frozen and stored at −80° C. Protein concentration of the cytosol was estimated using the BCA assay with reference standard protein.
100 uG/100 uL of the receptor preparation was aliquoted per well. […] The plate was incubated at room temperature for 2.5 h. […] 200 uL of the supernatant solution was then removed for scintillation counting. Samples were counted to 2% or 10 minutes, whichever occurs first. […] Also, wells containing radioactivity but no cytosol were processed with charcoal to estimate unremovable DPM of [^3H]
Counts per minute (CPM) of radioactivity were automatically converted to disintegrated per minute (DPM) by the Beckman LS 7500 Scintillation Counter using a set of quenched standards to generate a H No. for each sample.
For the generation of IC50 curves, % binding is plotted vs compound. […] For a description of these methods, see Hulme, E. C., ed. […] Receptor-Ligand Interactions: A Practical Approach. IRL Press, New York. (see especially chapter 8).

Row | SMILES | % Activation with 1 nM 17β-estradiol (Ishikawa cells) | Uterine wt mg 100 uG cmpd + 1 uG 17β-estradiol [2] [mg] | Uterine wt mg 100 uG cmpd [2] [mg] | further results
1 | C[C@]12CC[C@@H]3c4ccc(O)cc4CC[C@H]3[C@@H]1CC[C@H]2O [17α-estradiol] | – | – | – | EC50 (Ishikawa cells): 1.42 nM
2 | C[C@]12CC[C@@H]3c4ccc(O)cc4CC[C@H]3[C@@H]1CC[C@@H]2O [17β-estradiol] | – | – | – | % Activation (Ishikawa cells): 100%; EC50 (Ishikawa cells): 0.03 nM; Cholesterol [1]: 95.5 ± 3.9 mg/dL
3 | Cc1c(-c2ccc(O)cc2)n(Cc2ccc(OCCN3CCCCCC3)cc2)c2ccc(O)cc12 [Example No. 98, 1-[4-(2-Azepan-1-yl-ethoxy)-benzyl]-2-(4-hydroxy-phenyl)-3-methyl-1H-indol-5-ol] | activity (1% with 1 nM 17β-estradiol) | – | – | –
4 | Cc1c(-c2ccc(O)cc2)n(Cc2ccc(OCCN(C)C)cc2)c2ccc(O)cc12 [Example No. 100, 2-(4-Hydroxy-phenyl)-3-methyl-1-[4-(2-dimethyl-1-yl-ethoxy)-benzyl]-1H-indol-5-ol] | – | 68.7 | 59.9 | –
5 | Cc1c(-c2ccccc2)n(Cc2ccc(OCCN3CCCCC3)cc2)c2ccccc12 [compound 85, 4-{3-Methyl-1-[4-(2-piperidin-1-yl-ethoxy)-benzyl]-1H-indole}] | – | 92.4 | 41.1 | Infection Luciferase Activity 1 uM + 17β estradiol (estrogen receptor [3]): 43%; Infection Luciferase Activity 1 uM (estrogen receptor [3]): −2%
6 | CCN(CC)CCOc1ccc(Cn2c(-c3ccc(O)cc3)c(C)c3cc(O)ccc32)cc1 [compound 101, 2-(4-Hydroxy-phenyl)-3-methyl-1-[4-(2-diethyl-1-yl-ethoxy)-benzyl]-1H-indol-5-ol] | – | 71.0 | 65.1 | –
7 | Cc1c(-c2ccc(OC3CCCC3)cc2)n(Cc2ccc(OCCN3CCCCC3)cc2)c2ccc(O)cc12 [compound 122, 2-(4-Cyclopenyloxy-phenyl)-3-methyl-1-[4-(2-piperidin-1-yl-ethoxy)-benzyl]-1H-indol-5-ol] | – | 38.7 | 46.7 | Infection Luciferase Activity 1 uM + 17β estradiol (estrogen receptor [3]): 5%; Infection Luciferase Activity 1 uM (estrogen receptor [3]): 1%; IC50 (estrogen receptor [4]): 80 nM
8 | O=C(c1ccc(OCCN2CCCCC2)cc1)c1c(-c2ccc(O)cc2)sc2cc(O)ccc12 [raloxifene] | activity (5% with 1 nM 17β-estradiol) | – | – | –
9 | CC/C(=C(\c1ccccc1)c1ccc(OCCN(C)C)cc1)c1ccccc1 [tamoxifen] | activity (45% with 1 nM 17β-estradiol) | – | 71.4 | % Activation (Ishikawa cells): 0%
